According to patent US20250212681A1, “Light-Emitting Device” (Semiconductor Energy Laboratory Co., Ltd., priority 2023, published 2025):

Experiment: Solubility test of PrdP2Phen by LC-MS analysis
Type: physicochemical
Conditions: 1 mg in 1 mL of water, ultrasonic waves 5 minutes, filtrate analysed by LC-MS; one atmosphere, room temperature
Method: Next, a solubility test of PrdP2Phen was performed. Note that the solubility test was conducted at a pressure of one atmosphere at room temperature (RT).
In the LC-MS analysis, liquid chromatography (LC) separation was carried out with ACQUITY UPLC (manufactured by Waters Corporation), and MS analysis (mass spectrometry) was carried out with Xevo G2 Tof MS (manufactured by Waters Corporation). Acquity UPLC BEH C8 (2.1×100 mm, 1.7 μm) was used as a column for the LC separation. Acetonitrile was used for Mobile Phase A and a 0.1% aqueous solution of formic acid was used for Mobile Phase B. The injection amount of the sample was 5.0 μL. Note that in the analysis, the wavelength of a photodiode array detector was set to 263 nm±1 nm.
In a 5-mL sample bottle, 1 mg of PrdP2Phen was put and 1 mL of water was added thereto. This mixture was irradiated with ultrasonic waves for 5 minutes. This mixture was filtered through a membrane filter to remove the solid, and the resulting filtrate was diluted by five times with acetonitrile. The obtained solution was subjected to LC-MS analysis.

- solubility in water: extremely low solubility in water
SMILES: c1cc(-c2ccc(N3CCCC3)cc2)c2ccc3c(-c4ccc(N5CCCC5)cc4)ccnc3c2n1 [PrdP2Phen, 4,7-bis[4-(1-pyrrolidinyl)phenyl]-1,10-phenanthroline]
